Test results taken from US12077503B2, “Substituted cyclic amides and their use as herbicides” (FMC CORPORATION, priority 2015, dated 2024).

Tests used:
Assay type in all cases: in vivo
[1] = test system: barnyardgrass (Echinochloa crus-galli); test: Test G Pre-Emergence Protocol; settings: Echinochloa crus-galli, pre-emergence, 312 h, evaluated after 13 days; for pest or weed control at 15.625 g/ha: 15.625 g ai/ha, read-out: Barnyard grass damage rating (100=total damage to plant; 0=no damage to plant); for pest or weed control at 62.5 g/ha: 62.5 g ai/ha, 100=total damage to plant, 0=no damage to plant, read-out: plant damage rating, Barnyardgrass; for pest or weed control at 250 g/ha: 250 g ai/ha, read-out: Barnyardgrass damage rating (100=total damage to plant; 0=no damage to plant)
Procedure, shortened: (§1)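 Pre-emergence spray, 15.625/62.5/250 g/ha, vehicle acetone:water 50:50 + 0.5% Tween 20, applied 1 d after sowing. Glasshouse 24/16° C, 14 h light, 65% RH, watered twice daily. Visual damage rating at 13 d, 0–100 scale.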

corn (Zea mays) [2] = test: Test G Pre-Emergence Protocol; settings: Zea mays, pre-emergence, 312 h, evaluated after 13 days; for plant injury at 15.625 g/ha: 15.625 g ai/ha; for plant injury at 15.625 g/ha / plant injury at 250 g/ha: read-out: Corn damage rating (100=total damage to plant; 0=no damage to plant); for plant injury at 62.5 g/ha: 62.5 g ai/ha, 100=total damage to plant, 0=no damage to plant, read-out: plant damage rating, Corn; for plant injury at 250 g/ha: 250 g ai/ha
Procedure, shortened: as §1

[3] = test system: giant foxtail (Setaria faberi); test: Test G Pre-Emergence Protocol; settings: Setaria faberi, pre-emergence, 312 h, evaluated after 13 days; for pest or weed control at 15.625 g/ha: 15.625 g ai/ha; for pest or weed control at 15.625 g/ha / pest or weed control at 250 g/ha: read-out: Foxtail, Giant damage rating (100=total damage to plant; 0=no damage to plant); for pest or weed control at 62.5 g/ha: 62.5 g ai/ha, 100=total damage to plant, 0=no damage to plant, read-out: plant damage rating, Foxtail, Giant; for pest or weed control at 250 g/ha: 250 g ai/ha
Procedure, shortened: as §1

[4] = test system: ivy-leaved morning glory (Ipomoea hederacea); test: Test G Pre-Emergence Protocol; settings: Ipomoea, pre-emergence, 312 h, evaluated after 13 days; for pest or weed control at 15.625 g/ha: 15.625 g ai/ha, read-out: Morning-glory, Ivy-leaved damage rating (100=total damage to plant; 0=no damage to plant); for pest or weed control at 62.5 g/ha: 62.5 g ai/ha, 100=total damage to plant, 0=no damage to plant, read-out: plant damage rating, Morningglory, Ivy-leaved; for pest or weed control at 250 g/ha: 250 g ai/ha, read-out: Morningglory, Ivy-leaved damage rating (100=total damage to plant; 0=no damage to plant)
Procedure, shortened: as §1

[5] = test system: redroot pigweed (Amaranthus retroflexus); test: Test G Pre-Emergence Protocol; settings: Amaranthus retroflexus, pre-emergence, 312 h, evaluated after 13 days; for pest or weed control at 15.625 g/ha: 15.625 g ai/ha; for pest or weed control at 15.625 g/ha / pest or weed control at 250 g/ha: read-out: Pigweed, Redroot damage rating (100=total damage to plant; 0=no damage to plant); for pest or weed control at 62.5 g/ha: 62.5 g ai/ha, 100=total damage to plant, 0=no damage to plant, read-out: plant damage rating, Pigweed, Redroot; for pest or weed control at 250 g/ha: 250 g ai/ha
Procedure, shortened: as §1

[6] = test system: velvetleaf (Abutilon theophrasti); test: Test G Pre-Emergence Protocol; settings: Abutilon theophrasti, pre-emergence, 312 h, evaluated after 13 days; for pest or weed control at 15.625 g/ha: 15.625 g ai/ha; for pest or weed control at 15.625 g/ha / pest or weed control at 250 g/ha: read-out: Velvetleaf damage rating (100=total damage to plant; 0=no damage to plant); for pest or weed control at 62.5 g/ha: 62.5 g ai/ha, 100=total damage to plant, 0=no damage to plant, read-out: plant damage rating, Velvetleaf; for pest or weed control at 250 g/ha: 250 g ai/ha
Procedure, shortened: as §1

[7] = test system: barnyardgrass (Echinochloa crus-galli); test: Test G Post-Emergence Protocol; settings: Echinochloa crus-galli, post-emergence, 312 h; for pest or weed control at 15.625 g/ha: 15.625 g ai/ha, evaluated after 13 days (100=total damage to plant; 0=no damage to plant), read-out: Barnyardgrass damage rating; for pest or weed control at 62.5 g/ha: 62.5 g ai/ha, read-out: Barnyardgrass damage rating (100=total damage to plant; 0=no damage to plant); for pest or weed control at 62.5 g/ha / pest or weed control at 250 g/ha: evaluated after 13 days; for pest or weed control at 250 g/ha: 250 g ai/ha, read-out: damage to plant, Barnyardgrass (100=total damage to plant; 0=no damage to plant)
Procedure, shortened: (§2)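 Eight days post-sowing, plants received a spray of test compound (acetone/water 50:50, 0.5% Tween 20) at 15.625, 62.5 or 250 g/ha. Glasshouse regime thereafter: 24/16 °C, 14 h light, 65% humidity. Assessment after 13 days on a 0–100 damage scale.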

corn (Zea mays) [8] = test: Test G Post-Emergence Protocol; settings: Zea mays, post-emergence, 312 h; for plant injury at 15.625 g/ha: 15.625 g ai/ha, evaluated after 13 days (100=total damage to plant; 0=no damage to plant), read-out: Corn damage rating; for plant injury at 62.5 g/ha: 62.5 g ai/ha, read-out: Corn damage rating (100=total damage to plant; 0=no damage to plant); for plant injury at 62.5 g/ha / plant injury at 250 g/ha: evaluated after 13 days; for plant injury at 250 g/ha: 250 g ai/ha, read-out: damage to plant, Corn (100=total damage to plant; 0=no damage to plant)
Procedure, shortened: as §2

[9] = test system: giant foxtail (Setaria faberi); test: Test G Post-Emergence Protocol; settings: Setaria faberi, post-emergence, 312 h; for pest or weed control at 15.625 g/ha: 15.625 g ai/ha, evaluated after 13 days (100=total damage to plant; 0=no damage to plant), read-out: Foxtail, Giant damage rating; for pest or weed control at 62.5 g/ha: 62.5 g ai/ha, read-out: Foxtail, Giant damage rating (100=total damage to plant; 0=no damage to plant); for pest or weed control at 62.5 g/ha / pest or weed control at 250 g/ha: evaluated after 13 days; for pest or weed control at 250 g/ha: 250 g ai/ha, read-out: damage to plant, Foxtail, Giant (100=total damage to plant; 0=no damage to plant)
Procedure, shortened: as §2

[10] = test system: ivy-leaved morning glory (Ipomoea hederacea); test: Test G Post-Emergence Protocol; settings: Ipomoea, post-emergence, 312 h; for pest or weed control at 15.625 g/ha: 15.625 g ai/ha, evaluated after 13 days (100=total damage to plant; 0=no damage to plant), read-out: Morningglory, Ivy-leaved damage rating; for pest or weed control at 62.5 g/ha: 62.5 g ai/ha, read-out: Morningglory, Ivy-leaved damage rating (100=total damage to plant; 0=no damage to plant); for pest or weed control at 62.5 g/ha / pest or weed control at 250 g/ha: evaluated after 13 days; for pest or weed control at 250 g/ha: 250 g ai/ha, read-out: damage to plant, Morningglory, Ivy-leaved (100=total damage to plant; 0=no damage to plant)
Procedure, shortened: as §2

[11] = test system: redroot pigweed (Amaranthus retroflexus); test: Test G Post-Emergence Protocol; settings: Amaranthus retroflexus, post-emergence, 312 h; for pest or weed control at 15.625 g/ha: 15.625 g ai/ha, evaluated after 13 days (100=total damage to plant; 0=no damage to plant), read-out: Pigweed, Redroot damage rating; for pest or weed control at 62.5 g/ha: 62.5 g ai/ha, read-out: Pigweed, Redroot damage rating (100=total damage to plant; 0=no damage to plant); for pest or weed control at 62.5 g/ha / pest or weed control at 250 g/ha: evaluated after 13 days; for pest or weed control at 250 g/ha: 250 g ai/ha, read-out: damage to plant, Pigweed, Redroot (100=total damage to plant; 0=no damage to plant)
Procedure, shortened: as §2

[12] = test system: velvetleaf (Abutilon theophrasti); test: Test G Post-Emergence Protocol; settings: Abutilon theophrasti, post-emergence, 312 h; for pest or weed control at 15.625 g/ha: 15.625 g ai/ha, evaluated after 13 days (100=total damage to plant; 0=no damage to plant), read-out: Velvetleaf damage rating; for pest or weed control at 62.5 g/ha: 62.5 g ai/ha, read-out: Velvetleaf damage rating (100=total damage to plant; 0=no damage to plant); for pest or weed control at 62.5 g/ha / pest or weed control at 250 g/ha: evaluated after 13 days; for pest or weed control at 250 g/ha: 250 g ai/ha, read-out: damage to plant, Velvetleaf (100=total damage to plant; 0=no damage to plant)
Procedure, shortened: as §2

Row | SMILES | pest or weed control at 15.625 g/ha [1] [%] | pest or weed control at 62.5 g/ha [1] [%] | pest or weed control at 250 g/ha [1] [%] | plant injury at 15.625 g/ha (corn (Zea mays) [2]) [%] | plant injury at 62.5 g/ha (corn (Zea mays) [2]) [%] | plant injury at 250 g/ha (corn (Zea mays) [2]) [%] | pest or weed control at 15.625 g/ha [3] [%] | pest or weed control at 62.5 g/ha [3] [%] | pest or weed control at 250 g/ha [3] [%] | pest or weed control at 15.625 g/ha [4] [%] | pest or weed control at 62.5 g/ha [4] [%] | pest or weed control at 250 g/ha [4] [%] | pest or weed control at 15.625 g/ha [5] [%] | pest or weed control at 62.5 g/ha [5] [%] | pest or weed control at 250 g/ha [5] [%] | pest or weed control at 15.625 g/ha [6] [%] | pest or weed control at 62.5 g/ha [6] [%] | pest or weed control at 250 g/ha [6] [%] | pest or weed control at 15.625 g/ha [7] [%] | pest or weed control at 62.5 g/ha [7] [%] | other results
1 | Cc1ccc(NC(=O)[C@H]2C(=O)N(C)C[C@@H]2c2ccc(C(F)(F)F)cc2)c(C)c1C (racemic) [Compound 1448] | 0 | 0 | 0 | 0 | 0 | 0 | 0 | 20 | 60 | 0 | 0 | 0 | 0 | 0 | 0 | 0 | 0 | 0 | 0 | 0 | pest or weed control at 250 g/ha [7]: 0%; plant injury at 15.625 g/ha (corn (Zea mays) [8]): 0%; plant injury at 62.5 g/ha (corn (Zea mays) [8]): 0%; plant injury at 250 g/ha (corn (Zea mays) [8]): 10%; pest or weed control at 15.625 g/ha [9]: 0%; pest or weed control at 62.5 g/ha [9]: 0%; pest or weed control at 250 g/ha [9]: 0%; pest or weed control at 15.625 g/ha [10]: 0%; pest or weed control at 62.5 g/ha [10]: 0%; pest or weed control at 250 g/ha [10]: 0%; pest or weed control at 15.625 g/ha [11]: 0%; pest or weed control at 62.5 g/ha [11]: 0%; pest or weed control at 250 g/ha [11]: 30%; pest or weed control at 15.625 g/ha [12]: 0%; pest or weed control at 62.5 g/ha [12]: 0%; pest or weed control at 250 g/ha [12]: 0%
2 | CN1C[C@H](c2ccc(C(F)(F)F)cc2)[C@@H](C(=O)Nc2ncc(F)cc2F)C1=O (racemic) [Compound 1452] | 0 | 0 | 50 | 0 | 0 | 0 | 0 | 0 | 60 | 0 | 0 | 0 | 0 | 0 | 0 | 0 | 0 | 30 | 0 | 0 | pest or weed control at 250 g/ha [7]: 0%; plant injury at 15.625 g/ha (corn (Zea mays) [8]): 0%; plant injury at 62.5 g/ha (corn (Zea mays) [8]): 0%; plant injury at 250 g/ha (corn (Zea mays) [8]): 0%; pest or weed control at 15.625 g/ha [9]: 0%; pest or weed control at 62.5 g/ha [9]: 0%; pest or weed control at 250 g/ha [9]: 10%; pest or weed control at 15.625 g/ha [10]: 0%; pest or weed control at 62.5 g/ha [10]: 10%; pest or weed control at 250 g/ha [10]: 10%; pest or weed control at 15.625 g/ha [11]: 0%; pest or weed control at 62.5 g/ha [11]: 0%; pest or weed control at 250 g/ha [11]: 10%; pest or weed control at 15.625 g/ha [12]: 0%; pest or weed control at 62.5 g/ha [12]: 0%; pest or weed control at 250 g/ha [12]: 10%
3 | CN1C[C@H](c2ccc(C(F)F)cc2)[C@@H](C(=O)Nc2ccccc2F)C1=O (racemic) [Compound 1454] | 20 | 60 | 70 | 0 | 10 | 60 | 50 | 70 | 90 | 20 | 10 | 10 | 0 | 0 | 70 | 0 | 20 | 60 | 0 | 20 | pest or weed control at 250 g/ha [7]: 20%; plant injury at 15.625 g/ha (corn (Zea mays) [8]): 10%; plant injury at 62.5 g/ha (corn (Zea mays) [8]): 20%; plant injury at 250 g/ha (corn (Zea mays) [8]): 30%; pest or weed control at 15.625 g/ha [9]: 30%; pest or weed control at 62.5 g/ha [9]: 60%; pest or weed control at 250 g/ha [9]: 60%; pest or weed control at 15.625 g/ha [10]: 10%; pest or weed control at 62.5 g/ha [10]: 10%; pest or weed control at 250 g/ha [10]: 10%; pest or weed control at 15.625 g/ha [11]: 0%; pest or weed control at 62.5 g/ha [11]: 20%; pest or weed control at 250 g/ha [11]: 20%; pest or weed control at 15.625 g/ha [12]: 0%; pest or weed control at 62.5 g/ha [12]: 0%; pest or weed control at 250 g/ha [12]: 10%
